Source: patent US6737383B1, “Herbicidal oxadiazolidines” (priority 1999, dated 2004)

Assays:
[1] = test system: velvetleaf; experiment: Test B pre/postemergence velvetleaf; type: in vivo, Abutilon theophrasti
How it was run: (§1)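 Herbicidal effect was estimated by eye on a ten-point control scale after plants spent twelve to sixteen days in a greenhouse following soil or foliar treatment. Foliar sprays targeted plants at one to four leaves; all doses were formulated in a non-phytotoxic solvent with surfactant.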

[2] = test system: duck salad; experiment: Test B flood test duck salad; type: in vivo, Heteranthera limosa
How it was run: (§2)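 Flood test on plants grown to the 2-leaf stage; treated plants kept in greenhouse twelve to sixteen days, then visually rated against controls on a 0 (no effect) to 10 (complete control) scale.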

[3] = test system: sugar beet; experiment: Test B pre/postemergence sugar beet; type: in vivo, Beta vulgaris
How it was run: as §1

[4] = test system: morningglory; experiment: Test B pre/postemergence morningglory; type: in vivo, Ipomoea hederacea
How it was run: as §1

[5] = test system: wheat; experiment: Test B pre/postemergence wheat; type: in vivo, Triticum aestivum
How it was run: as §1

[6] = test system: rape; experiment: Test B pre/postemergence rape; type: in vivo, Brassica napus
How it was run: as §1

[7] = test system: pigweed; experiment: Test B pre/postemergence pigweed; type: in vivo, Amaranthus retroflexus
How it was run: as §1

[8] = test system: rice; experiment: Test B flood test rice; type: in vivo, Oryza sativa
How it was run: as §2

[9] = test system: soybean; experiment: Test B pre/postemergence soybean; type: in vivo, Glycine max
How it was run: as §1

[10] = test system: purple nutsedge; experiment: Test B pre/postemergence purple nutsedge; type: in vivo, Cyperus rotundus
How it was run: as §1

[11] = test system: crabgrass; experiment: Test B pre/postemergence crabgrass; type: in vivo, Digitaria sanguinalis
How it was run: as §1

[12] = test system: corn; experiment: Test B pre/postemergence corn; type: in vivo, Zea mays
How it was run: as §1

[13] = test system: cocklebur; experiment: Test B pre/postemergence cocklebur; type: in vivo, Xanthium strumarium
How it was run: as §1

[14] = test system: blackgrass; experiment: Test B pre/postemergence blackgrass; type: in vivo, Alopecurus myosuroides
How it was run: as §1

[15] = test system: bedstraw; experiment: Test B pre/postemergence bedstraw; type: in vivo, Galium aparine
How it was run: as §1

[16] = test system: surinam grass; experiment: Test B pre/postemergence surinam grass; type: in vivo, Brachiaria decumbens
How it was run: as §1

[17] = test system: giant foxtail; experiment: Test B pre/postemergence giant foxtail; type: in vivo, Setaria faberii
How it was run: as §1

[18] = test system: wild oat; experiment: Test B pre/postemergence wild oat; type: in vivo, Avena fatua
How it was run: as §1

[19] = test system: bamyardgrass; experiment: Test B flood test barnyardgrass; type: in vivo, Echinochloa crus-galli
How it was run: as §2

[20] = test system: smallflower flatsedge; experiment: Test B flood test smallflower flatsedge; type: in vivo, Cyperus difformis
How it was run: as §2

[21] = Postemergence, Rate 62 g/ha, scale 0 to 10, 0 is no effect, 10 is complete control
[22] = Postemergence, Rate 250 g/ha, scale 0 to 10, 0 no effect, 10 complete control
[23] = Preemergence, Rate 62 g/ha, scale 0 to 10, 0 is no effect, 10 is complete control
[24] = Preemergence, Rate 125 g/ha, scale 0 to 10 (0 no effect, 10 complete control)
[25] = Preemergence, Rate 250 g/ha, scale of 0 to 10 where 0 is no effect and 10 is complete control
[26] = Preemergence, Rate 500 g/ha, scale 0 (no effect) to 10 (complete control)
[27] = Rate 125 g/ha, Postemergence, scale 0 to 10, 0 no effect, 10 complete control
[28] = Rate 500 g/ha, Postemergence, scale 0 to 10, 0 no effect, 10 complete control
[29] = Rate 125 g/ha, Postemergence section (flood test species), scale 0 to 10, 0 no effect, 10 complete control
[30] = Rate 500 g/ha, listed under Postemergence (flood test species), scale 0 to 10, 0 no effect, 10 complete control
[31] = flood test, listed under Postemergence, Rate 250 g/ha, scale 0 to 10, 0 no effect, 10 complete control

## COc1ccc(N(C(=O)n2oc(=O)n(-c3ccccc3C)c2=O)C(C)C)cc1 [Compound 49]
[1]; [21]
  Velvetleaf plant response rating: 0
[1]; [22]
  Velvetleaf plant response rating: 0
[1]; [23]
  Plant response rating, Velvetleaf: 0
[1]; [24]
  Plant response rating, Velvetleaf: 0
[1]; [25]
  Plant response rating, Velvetleaf: 0
[1]; [26]
  Velvetleaf plant response rating: 0
[1]; [27]
  Velvetleaf plant response rating: 0
[1]; [28]
  Velvetleaf plant response rating: 0
[2]; [29]
  Ducksalad plant response rating: 0
[3]; [21]
  Sugarbeets plant response rating: 0
[3]; [22]
  Sugarbeets plant response rating: 0
[3]; [23]
  Plant response rating, Sugarbeets: 0
[3]; [24]
  Plant response rating, Sugarbeets: 0
[3]; [25]
  Plant response rating, Sugarbeets: 0
[3]; [26]
  Sugarbeets plant response rating: 0
[3]; [27]
  Sugarbeets plant response rating: 0
[3]; [28]
  Sugarbeets plant response rating: 0
[4]; [21]
  Morningglory plant response rating: 0
[4]; [22]
  Morningglory plant response rating: 0
[4]; [23]
  Plant response rating, Morningglory: 0
[4]; [24]
  Plant response rating, Morningglory: 0
[4]; [25]
  Plant response rating, Morningglory: 0
[4]; [26]
  Morningglory plant response rating: 0
[4]; [27]
  Morningglory plant response rating: 0
[4]; [28]
  Morningglory plant response rating: 3
[5]; [21]
  Wheat plant response rating: 0
[5]; [22]
  Wheat plant response rating: 0
[5]; [23]
  Plant response rating, Wheat: 0
[5]; [24]
  Plant response rating, Wheat: 0
[5]; [25]
  Plant response rating, Wheat: 0
[5]; [26]
  Wheat plant response rating: 0
[5]; [27]
  Wheat plant response rating: 0
[5]; [28]
  Wheat plant response rating: 0
[6]; [21]
  Rape plant response rating: 0
[6]; [22]
  Rape plant response rating: 0
[6]; [23]
  Plant response rating, Rape: 0
[6]; [24]
  Plant response rating, Rape: 0
[6]; [25]
  Plant response rating, Rape: 0
[6]; [26]
  Rape plant response rating: 0
[6]; [27]
  Rape plant response rating: 0
[6]; [28]
  Rape plant response rating: 0
[7]; [21]
  Redroot pigweed plant response rating: 0
[7]; [22]
  Redroot pigweed plant response rating: 0
[7]; [23]
  Plant response rating, Redroot pigweed: 0
[7]; [24]
  Plant response rating, Redroot pigweed: 0
[7]; [25]
  Plant response rating, Redroot pigweed: 0
[7]; [26]
  Redroot pigweed plant response rating: 0
[7]; [27]
  Redroot pigweed plant response rating: 0
[7]; [28]
  Redroot pigweed plant response rating: 0
[8]; [29]
  Rice plant response rating: 0
[9]; [21]
  Soybean plant response rating: 1
[9]; [22]
  Soybean plant response rating: 1
[9]; [23]
  Plant response rating, Soybean: 0
[9]; [24]
  Plant response rating, Soybean: 0
[9]; [25]
  Plant response rating, Soybean: 0
[9]; [26]
  Soybean plant response rating: 0
[9]; [27]
  Soybean plant response rating: 1
[9]; [28]
  Soybean plant response rating: 1
[10]; [21]
  Nutsedge plant response rating: 0
[10]; [22]
  Nutsedge plant response rating: 0
[10]; [23]
  Plant response rating, Nutsedge: 0
[10]; [24]
  Plant response rating, Nutsedge: 0
[10]; [25]
  Plant response rating, Nutsedge: 0
[10]; [26]
  Nutsedge plant response rating: 0
[10]; [27]
  Nutsedge plant response rating: 0
[10]; [28]
  Nutsedge plant response rating: 0
[11]; [21]
  Crabgrass plant response rating: 0
[11]; [22]
  Crabgrass plant response rating: 8
[11]; [23]
  Plant response rating, Crabgrass: 2
[11]; [24]
  Plant response rating, Crabgrass: 7
[11]; [25]
  Plant response rating, Crabgrass: 9
[11]; [26]
  Crabgrass plant response rating: 9
[11]; [27]
  Crabgrass plant response rating: 1
[11]; [28]
  Crabgrass plant response rating: 9
[12]; [21]
  Corn plant response rating: 0
[12]; [22]
  Corn plant response rating: 0
[12]; [23]
  Plant response rating, Corn: 0
[12]; [24]
  Plant response rating, Corn: 0
[12]; [25]
  Plant response rating, Corn: 0
[12]; [26]
  Corn plant response rating: 0
[12]; [27]
  Corn plant response rating: 0
[12]; [28]
  Corn plant response rating: 0
[13]; [21]
  Cocklebur plant response rating: 0
[13]; [22]
  Cocklebur plant response rating: 0
[13]; [23]
  Plant response rating, Cocklebur: 0
[13]; [24]
  Plant response rating, Cocklebur: 0
[13]; [25]
  Plant response rating, Cocklebur: 0
[13]; [26]
  Cocklebur plant response rating: 0
[13]; [27]
  Cocklebur plant response rating: 0
[13]; [28]
  Cocklebur plant response rating: 0
[14]; [21]
  Blackgrass plant response rating: 0
[14]; [22]
  Blackgrass plant response rating: 0
[14]; [23]
  Plant response rating, Blackgrass: 0
[14]; [24]
  Plant response rating, Blackgrass: 0
[14]; [25]
  Plant response rating, Blackgrass: 0
[14]; [26]
  Blackgrass plant response rating: 0
[14]; [27]
  Blackgrass plant response rating: 0
[14]; [28]
  Blackgrass plant response rating: 0
[15]; [21]
  Bedstraw plant response rating: 0
[15]; [22]
  Bedstraw plant response rating: 5
[15]; [23]
  Plant response rating, Bedstraw: 0
[15]; [24]
  Plant response rating, Bedstraw: 0
[15]; [25]
  Plant response rating, Bedstraw: 0
[15]; [26]
  Bedstraw plant response rating: 0
[15]; [27]
  Bedstraw plant response rating: 0
[16]; [21]
  B. signalgrass plant response rating: 0
[16]; [22]
  B. signalgrass plant response rating: 0
[16]; [23]
  Plant response rating, B. signalgrass: 0
[16]; [24]
  Plant response rating, B. signalgrass: 0
[16]; [25]
  Plant response rating, B. signalgrass: 0
[16]; [26]
  B. signalgrass plant response rating: 0
[16]; [27]
  B. signalgrass plant response rating: 0
[16]; Rate 500 g/ha, Postemergence, scale of 0 to 10 where 0 is no effect and 10 is complete control
  B. signalgrass plant response rating: 0
[17]; [21]
  Giant foxtail plant response rating: 1
[17]; [22]
  Giant foxtail plant response rating: 9
[17]; [23]
  Plant response rating, Giant foxtail: 8
[17]; [24]
  Plant response rating, Giant foxtail: 8
[17]; [25]
  Plant response rating, Giant foxtail: 10
[17]; [26]
  Giant foxtail plant response rating: 10
[17]; [27]
  Giant foxtail plant response rating: 4
[17]; [28]
  Giant foxtail plant response rating: 9
[18]; [21]
  Wild oats plant response rating: 0
[18]; [22]
  Wild oats plant response rating: 0
[18]; [24]
  Plant response rating, Wild oats: 0
[18]; [25]
  Plant response rating, Wild oats: 0
[18]; [26]
  Wild oats plant response rating: 0
[18]; [27]
  Wild oats plant response rating: 0
[18]; [28]
  Wild oats plant response rating: 0

## CCN(CC)C(=O)n1oc(=O)n(Cc2ccccc2C)c1=O [Compound 84]
[2]; [21]
  Ducksalad plant response rating: 0
[2]; [29]
  Ducksalad plant response rating: 0
[2]; [30]
  Ducksalad plant response rating: 0
[2]; [31]
  Ducksalad plant response rating: 0
[8]; [21]
  Rice plant response rating: 0
[8]; [29]
  Rice plant response rating: 0
[8]; [30]
  Rice plant response rating: 0
[8]; [31]
  Rice plant response rating: 0
[19]; [21]
  Barnyardgrass plant response rating: 0
[19]; [29]
  Barnyardgrass plant response rating: 0
[19]; [30]
  Barnyardgrass plant response rating: 0
[19]; [31]
  Barnyardgrass plant response rating: 0
[20]; [21]
  S. Flatsedge plant response rating: 0
[20]; [29]
  S. Flatsedge plant response rating: 0
[20]; [30]
  S. Flatsedge plant response rating: 0
[20]; [31]
  S. Flatsedge plant response rating: 0
